What was measured:
[1] = Antioxidant activity against AAPH-induced linoleic acid peroxidation at 100 uM by UV spectrophotometry analysis; type: functional
[2] = tested on: Radical scavenging activity; assay: Antioxidant activity assessed as DPPH radical scavenging activity at 50 uM after 20 mins; type: functional
[3] = tested on: Radical scavenging activity; assay: Antioxidant activity assessed as DPPH radical scavenging activity at 10 uM after 60 mins; type: functional
Prothrombin = Prothrombin (Homo sapiens, UniProt P00734); assay: Inhibition of thrombin using S-2238 as substrate after 15 mins by spectrophotometric analysis
[4] = Antioxidant activity against AAPH-induced linoleic acid peroxidation by UV spectrophotometry analysis; type: functional
[5] = tested on: Radical scavenging activity; assay: Antioxidant activity assessed as DPPH radical scavenging activity at 10 uM after 20 mins; type: functional
Glycine max = assay: (§1) Inhibition of soybean lipoxygenase by UV absorbance based assay
[6] = tested on: Radical scavenging activity; assay: Antioxidant activity assessed as DPPH radical scavenging activity at 50 uM after 60 mins; type: functional
[7] = as §1; design: species or system Glycine max

In the case of `Cc1c(C)c2c(c(C)c1O)CCC(C)(C(=O)O)O2` (configuration not stated), the inhibition [1] is reported as 63%.
For `CCOC(=O)CN(Cc1ccc(F)cc1)c1ccc2c(c1)OC(C)(COc1ccc(C(=N)N)cc1)CN2C` (configuration not stated), the Activity [2] was 62%, the Activity [3] was 93% and the Ki (Prothrombin) was 0.31 µM. For the same compound, the IC50 [4] was 94.5 µM, the Activity [5] was 88% and the inhibition (Glycine max) was over 0%. For the same compound, the Activity [6] was 70%.
Work on `CCOC(=O)CN(Cc1ccc(F)c(F)c1)c1ccc2c(c1)OC(C)(COc1ccc(C(=N)N)cc1)CN2C` (configuration not stated) yielded an Activity [2] of 70%, an Activity [3] of 90% and a Ki (Prothrombin) of 0.43 µM. It also gave an IC50 [4] of 70 µM, an Activity [5] of 84% and an inhibition (Glycine max) of over 0%. It also gave an Activity [6] of 81%.
Compound `CCOC(=O)CN(Cc1ccc(F)c(F)c1)c1ccc2c(c1)N(C)CC(C)(COc1ccc(C(=N)N)cc1)O2` (configuration not stated) has an Activity [2] of 11%, an Activity [3] of 21% and a Ki (Prothrombin) of 0.66 µM. The IC50 [4] was 68 µM, the Activity [5] was 8% and the inhibition (Glycine max) was over 0%. The Activity [6] was 16%.
With `CCOC(=O)C(=O)N(Cc1cccc(F)c1)c1ccc2c(c1)N(C)CC(C)(COc1ccc(C(=N)N)cc1)O2` (configuration not stated) the Activity [2] was 11%, the Activity [3] was 24% and the IC50 [4] was 90 µM. For the same compound, the Activity [5] was 12%, the inhibition (Glycine max) was over 0% and the Activity [6] was 14%.
Work on `CCOC(=O)CN(Cc1cc(F)cc(F)c1)c1ccc2c(c1)OC(C)(COc1ccc(C(=N)N)cc1)CN2C` (configuration not stated) yielded an Activity [2] of 54%, an Activity [3] of 86% and a Ki (Prothrombin) of 0.48 µM. It also gave an IC50 [4] of 69 µM, an Activity [5] of 75% and an inhibition (Glycine max) of over 0%. It also gave an Activity [6] of 68%.
`CC(Cc1ccc(O)c(O)c1)C(C)Cc1ccc(O)c(O)c1` (configuration not stated) showed an Activity [2] of 68%, an Activity [3] of 83% and an Activity [5] of 83%. For the same compound, the Activity [6] was 81%.
`CCOC(=O)C(=O)N(Cc1cc(F)cc(F)c1)c1ccc2c(c1)N(C)CC(C)(COc1ccc(C(=N)N)cc1)O2` (configuration not stated) showed an Activity [2] of 23%, an Activity [3] of 36% and an IC50 [4] of 69 µM. For the same compound, the Activity [5] was 25%, the IC50 [7] was 99 µM and the Activity [6] was 28%.
In the case of `CCOC(=O)CN(Cc1cc(F)cc(F)c1)c1ccc2c(c1)N(C)CC(C)(COc1ccc(C(=N)N)cc1)O2` (configuration not stated), the Activity [2] is reported as 8%, the Activity [3] is reported as 18% and the Ki (Prothrombin) is reported as 0.95 µM. The IC50 [4] was 36 µM, the Activity [5] was 8% and the inhibition (Glycine max) was 41.7%. It also gave an Activity [6] of 10%.
`CCOC(=O)C(=O)N(Cc1ccc(F)cc1)c1ccc2c(c1)N(C)CC(C)(COc1ccc(C(=N)N)cc1)O2` (configuration not stated) gave an Activity [2] of 10%, an Activity [3] of 21% and an IC50 [4] of 51 µM. The Activity [5] was 10%, the inhibition (Glycine max) was over 0% and the Activity [6] was 12%.
Work on `CCOC(=O)CN(Cc1ccc(F)cc1)c1ccc2c(c1)N(C)CC(C)(COc1ccc(C(=N)N)cc1)O2` (configuration not stated) yielded an Activity [2] of 11%, an Activity [3] of 24% and a Ki (Prothrombin) of 0.69 µM. It also gave an IC50 [4] of 77 µM, an Activity [5] of 11% and an IC50 [7] of 73 µM. The Activity [6] was 14%.
`CCOC(=O)C(=O)N(Cc1ccc(F)c(F)c1)c1ccc2c(c1)N(C)CC(C)(COc1ccc(C(=N)N)cc1)O2` (configuration not stated) showed an Activity [2] of 23%, an Activity [3] of 46% and a Ki (Prothrombin) of 0.37 µM. It also gave an IC50 [4] of 61.5 µM, an Activity [5] of 35% and an inhibition (Glycine max) of over 0%. For the same compound, the Activity [6] was 28%.
`O=C(O)/C=C/c1ccc(O)c(O)c1` [CAFFEIC ACID] gave an IC50 [7] of 600 µM.
With `CCOC(=O)CN(Cc1cccc(F)c1)c1ccc2c(c1)N(C)CC(C)(COc1ccc(C(=N)N)cc1)O2` (configuration not stated) the Activity [2] was 11%, the Activity [3] was 23% and the Ki (Prothrombin) was 0.9 µM. For the same compound, the IC50 [4] was 59 µM, the Activity [5] was 10% and the inhibition (Glycine max) was 9.7%. For the same compound, the Activity [6] was 14%.
With `CCOC(=O)CN(Cc1cccc(F)c1)c1ccc2c(c1)OC(C)(COc1ccc(C(=N)N)cc1)CN2C` (configuration not stated) the Activity [2] was 48%, the Activity [3] was 85% and the Ki (Prothrombin) was 0.35 µM. It also gave an IC50 [4] of 81 µM, an Activity [5] of 71% and an inhibition (Glycine max) of over 0%. For the same compound, the Activity [6] was 63%.
